Patent US20050085554A1, “Methods of treating disease through the administration of a manzamine analog or derivative” (priority 2003, published 2005)
Converted amounts (≈) assume the structure as drawn.

How the values were obtained:
HIV-1LAV = experiment: Anti-HIV-1 activity in PBM cells; type: cell-based, human immunodeficiency virus (HIV-1); conditions: for EC50: T5
Method: Anti-HIV-1 activity was determined in PBM cells as described previously. See, Stock solutions (20 or 40 mM) of the compounds were prepared in sterile DMSO and then diluted to the desired concentration in growth medium. Cells were infected with the prototype HIV-1LAV at a multiplicity of infection of 0.1. Details on the infection of cells and assessment of antiviral effects was described previously. See, Schinazi, R. F.; McMillan, A.; Cannon, D.; Mathis, R.; Lloyd, R. M.; Peck, A.; Sommadossi, J.-P.; Clair, M. S.; Wilson, J.; Furman, P. A.; Painter G.; Choi, W.-B.; Liotta, D. C. Antimicrob. Agents Chemother. 1992, 36, 2423-2431 and Schinazi, R. F.; Sommadossi, J.-P.; Saalmann, V.; Cannon, D. L.; Xie, M.-Y.; Hart, G. C.; Smith, G. A.; Hahn, E. F. Antimicrob. Agents Chemother. 1990, 34, 1061-1067.

Cryptococcus neoformans = experiment: Antifungal activity against Cryptococcus neoformans; type: cell-based; conditions: for Antifungal IC50 C. neoformans: T5, NA = not active
Staphylococcus aureus = experiment: Antibacterial activity against S. aureus; type: cell-based; conditions: for Antibacterial IC50 S. aureus: T5, NA = not active
[1] = tested on: Plasmodium falciparum (D6 clone); experiment: Antimalarial activity in vitro, D6 clone; type: cell-based
Vero cells = experiment: In vitro cytotoxicity to mammalian cells (Vero)
Leishmania donovani = experiment: Antileishmanial activity in vitro; type: cell-based
[2] = tested on: P. falciparum (chlorine-resistant W2 clone); experiment: Antimalarial activity in vitro, W2 clone; type: cell-based, Plasmodium falciparum
[3] = tested on: Mycobacterium tuberculosis H37Rv; experiment: In vitro antimycobacterial activity (Microplate Alamar Blue Assay), MIC; type: cell-based; conditions: for Mycobacterium Tuberculosis (H37Rv) MIC: T4; for MIC against Mycobacterium tuberculosis (Mtb): rifampin = positive control
[4] = tested on: methicillin-resistant Staphylococcus aureus; experiment: Antibacterial activity against MRS; type: cell-based; conditions: for Antibacterial IC50 MRS: T5, NA = not active
[5] = tested on: Mycobacterium intracellulare; experiment: Activity against M. intracellulare; type: cell-based; conditions: for IC50 M. intracellulare: T5, NA = not active
[6] = tested on: human lung carcinoma A-549
[7] = tested on: human colon carcinoma H-116
Candida albicans = experiment: Antifungal activity against Candida albicans; type: cell-based
Aspergillus fumigatus = experiment: Antifungal activity against Aspergillus fumigatus; type: cell-based; conditions: T6, footnote a: the lowest concentration that significantly inhibits growth
[8] = T4, NC = No Cytotoxicity (concentration: 4760 ng/ml)

O[C@]12C=C(c3nccc4c3[nH]c3ccccc34)[C@@H]3CCN(CCCC/C=C\CC1)C[C@@]31C[C@@H]3/C=C\CCCCN3[C@H]12 [Manzamine A]
EC50 (HIV-1LAV): 4.2 µM | Antifungal IC50 C. neoformans (Cryptococcus neoformans): 3.0 µg/mL | Antibacterial IC50 S. aureus (Staphylococcus aureus): 0.5 µg/mL | Plasmodium falciparum (D6 clone) IC 50 ([1]; T4, NA = not active): 0.0045 µg/mL | Plasmodium falciparum (D6 clone) IC 50 ([1]; T7): 0.0045 µg/mL | Cytotoxicity (Vero) (Vero cells; [8]): 1200 ng/mL | Cytotoxicity (Vero) (Vero cells; T7, NC not defined in this table): 1200 ng/mL | Leishmania donovani IC 50 (Leishmania donovani; T4): 0.9 µg/mL | Leishmania donovani IC 90 (Leishmania donovani; T4): 1.8 µg/mL | Leishmania donovani IC 50 (Leishmania donovani; T7): 0.9 µg/mL | Leishmania donovani IC 90 (Leishmania donovani; T7): 1.8 µg/mL | P. falciparum (chlorine-resistant W2 clone) IC 50 ([2]; T4, NA = not active): 0.008 µg/mL | P. falciparum (chlorine-resistant W2 clone) IC 50 ([2]; T7): 0.008 µg/mL | Mycobacterium Tuberculosis (H37Rv) MIC [3]: 1.53 µg/mL | Antibacterial IC50 MRS [4]: 0.7 µg/mL | IC50 M. intracellulare [5]: 0.35 µg/mL (≈ 0.638 µM) | M. intracellulare IC50 ([5]; T7, first value of a cell '2.0/5.0'): 1.53 µg/mL

CC(=O)C[C@H]1C[C@H]2[C@H]([C@@H]3c4[nH]c5ccccc5c4CCN13)[C@H](O)C13CC/C=C\CCCCN1CC21C2CCCCCCCN2[C@H]13 (stereo partly drawn) [Manadomanzamine A]
EC50 against human immunodeficiency virus (HIV-1) (HIV-1LAV): 6.96 µg/mL (≈ 11.4 µM) | IC50 against human lung carcinoma A-549 [6]: 2.5 µg/mL (≈ 4.09 µM) | IC50 against human colon carcinoma H-116 [7]: 5.0 µg/mL (≈ 8.18 µM) | IC50 against the fungus Candida albicans (Candida albicans): 20 µg/mL (≈ 32.7 µM) | MIC against Mycobacterium tuberculosis (Mtb) [3]: 1.86 µg/mL (≈ 3.04 µM)

xestomanzamine A
EC50 against human immunodeficiency virus (HIV-1) (HIV-1LAV): 11.2 µg/mL | Cytotoxicity IC50 A-594 [6]: >5 µg/mL | IC50 against the fungus Cryptococcus neoformans (Cryptococcus neoformans): 6.0 µg/mL | Cytotoxicity IC50 H-116 [7]: >5 µg/mL | Anti-TB MIC ([3]; T1, no unit in table): 14.1 µg/mL

CC(=O)C[C@@H]1C[C@H]2[C@H]([C@@H]3c4[nH]c5ccccc5c4CCN13)[C@H](O)C13CC/C=C\CCCCN1CC21C2CCCCCCCN2[C@H]13 (stereo partly drawn) [Manadomanzamine B]
EC50 against human immunodeficiency virus (HIV-1) (HIV-1LAV): 16.5 µg/mL (≈ 27 µM) | IC50 against the fungus Cryptococcus neoformans (Cryptococcus neoformans): 3.5 µg/mL (≈ 5.73 µM) | IC50 against human colon carcinoma H-116 [7]: 5.0 µg/mL (≈ 8.18 µM) | MIC against Mycobacterium tuberculosis (Mtb) [3]: 1.53 µg/mL (≈ 2.5 µM)

Manzamine A N-oxide
Antifungal IC50 C. neoformans (Cryptococcus neoformans): 1.0 µg/mL | Antibacterial IC50 S. aureus (Staphylococcus aureus): 0.5 µg/mL | Plasmodium falciparum (D6 clone) IC 50 ([1]; T4, NA = not active): 0.011 µg/mL | Cytotoxicity (Vero) (Vero cells; [8]): 420 ng/mL | Leishmania donovani IC 50 (Leishmania donovani; T4): 1.1 µg/mL | Leishmania donovani IC 90 (Leishmania donovani; T4): 3.8 µg/mL | P. falciparum (chlorine-resistant W2 clone) IC 50 ([2]; T4, NA = not active): 0.013 µg/mL | Mycobacterium Tuberculosis (H37Rv) MIC [3]: 3.9 µg/mL | Antibacterial IC50 MRS [4]: 0.35 µg/mL | IC50 M. intracellulare [5]: 0.2 µg/mL

C[C@@H]1[C@H](O)[C@@H](C)/C=C/C=C/C=C/C=C/C=C/C=C/C=C/[C@H](O[C@@H]2O[C@H](C)[C@@H](O)[C@H](N)[C@@H]2O)C[C@@H]2O[C@](O)(C[C@@H](O)C[C@@H](O)[C@H](O)CC[C@@H](O)C[C@@H](O)CC(=O)O[C@H]1C)C[C@H](O)[C@H]2C(=O)O [Amphotericin B, reference compound]
Cryptococcus neoformans IC50 (Cryptococcus neoformans): 0.25 µg/mL | Antifungal IC50 C. neoformans (Cryptococcus neoformans): 0.15 µg/mL | Cryptococcus neoformans MIC (Cryptococcus neoformans; lowest concentration that allows no detectable growth): 0.63 µg/mL | Leishmania donovani IC 50 (Leishmania donovani; T4): 0.06 µg/mL | Leishmania donovani IC 90 (Leishmania donovani; T4): 0.15 µg/mL | Candida albicans IC50 (Candida albicans; T6): 0.10 µg/mL | Candida albicans MIC (Candida albicans; T6, MIC: lowest concentration that allows no detectable growth): 0.63 µg/mL | Aspergillus fumigatus MIC (Aspergillus fumigatus): 0.63^a μg/mL

C1=C/[C@@H]2[C@H]3CCCC[C@@H]3C[C@@H]2NCCCNC2C[C@H]3CCCC[C@@H]3[C@H]2/C=C/1 (single isomer, unassigned; (-)) [Papuamine, (−)-papuamine]
MIC (Cryptococcus neoformans; Cryptococcus neoformans, lowest concentration that allows no detectable growth): 0.63 µg/mL (≈ 1.71 µM) | IC50 (Cryptococcus neoformans; Cryptococcus neoformans, read-out: Cryptococcus neoformans IC50): 0.35 µg/mL (≈ 0.95 µM) | MIC (Staphylococcus aureus; Staphylococcus aureus, T6): 5 µg/mL (≈ 13.6 µM) | IC50 (Staphylococcus aureus; Staphylococcus aureus, T6, read-out: Staphylococcus aureus IC50): 2.5 µg/mL (≈ 6.78 µM) | IC50 ([1]; Plasmodium falciparum, D6, T6): 0.15 µg/mL (≈ 0.407 µM) | IC50 ([2]; Plasmodium falciparum, W2, T6, read-out: P. falciparum (W2 clone) IC50): 0.34 µg/mL (≈ 0.922 µM) | IC50 (Candida albicans; Candida albicans, T6): 1.5 µg/mL (≈ 4.07 µM) | MIC (Candida albicans; Candida albicans, T6, MIC: lowest concentration that allows no detectable growth): 5 µg/mL (≈ 13.6 µM) | MIC (Aspergillus fumigatus; Aspergillus fumigatus): 1.25 µg/mL (≈ 3.39 µM) | MIC ([3]; Mycobacterium tuberculosis, H37RV, T6, read-out: Mycobacterium tuberculosis MIC): 0.4 µg/mL (≈ 1.09 µM) | MIC ([4]; Staphylococcus aureus, T6): 5 µg/mL (≈ 13.6 µM) | IC50 ([4]; T6, MRS: methicillin-resistant Staphylococcus aureus, read-out: MRS IC50): 2.5 µg/mL (≈ 6.78 µM) | IC50 ([5]; Mycobacterium intracellulare, T6, read-out: Mycobacterium intracellulare IC50): 4 µg/mL (≈ 10.9 µM)

Oc1cccc2c1[nH]c1c(C3=C[C@@]4(O)CC/C=C\CCCCN5CCC3[C@]3(CC6/C=C\CCCCN6[C@H]34)C5)nccc12 (single isomer, unassigned; (+)) [(+)-8-Hydroxymanzamine A]
EC50 (HIV-1LAV): 0.59 µM | Antifungal IC50 C. neoformans (Cryptococcus neoformans): 3.0 µg/mL | Antibacterial IC50 S. aureus (Staphylococcus aureus): 0.9 µg/mL | Plasmodium falciparum (D6 clone) IC 50 ([1]; T4, NA = not active): 0.006 µg/mL | Leishmania donovani IC 50 (Leishmania donovani; T4): 6.2 µg/mL | Leishmania donovani IC 90 (Leishmania donovani; T4): 11 µg/mL | P. falciparum (chlorine-resistant W2 clone) IC 50 ([2]; T4, NA = not active): 0.008 µg/mL | Mycobacterium Tuberculosis (H37Rv) MIC [3]: 0.91 µg/mL | Antibacterial IC50 MRS [4]: 4.0 µg/mL | IC50 M. intracellulare [5]: 1.0 µg/mL (≈ 1.77 µM)
